Each compound was assayed on methyltransferase NcpB (assay: NcpB O-methyltransferase enzyme assay). Conditions: with NcpB and SAM.

| Compound | substrate of NcpB (O-methylation) |
| --- | --- |
| Cc1cc(O)cc(=O)o1 | not substrates |
| Cc1cc(O)c(C)c(=O)o1 [4-hydroxy-3,6-dimethyl-2-pyrone] | not substrates |
| germicidin A | not substrates |
